In ChEMBL document CHEMBL3885861, “Open TG-GATES”:

Organism: Rattus norvegicus
Assay: Open TG-GATES - Regimen: Single
Format: toxicity, organism-based, Sprague-Dawley
Set-up: regimen Single, gender Male, age 6 weeks
Settings: in vivo, iv, route intravenous injection; for Bas / Eos / Fbg / Ht / Lym / MCHC / MCV / Mono / PT / Plat / RBC / Ret / WBC / APTT / Hb / MCH / Neu: tissue Blood; for KIDNEY_L / KIDNEY_R / KIDNEY_TOTAL: tissue Kidney; for LIVER: tissue Liver
[1] = 0 mg/kg, 3 h, dose level Control
[2] = 0 mg/kg, 3 h, tissue Plasma, dose level Control
[3] = 0 mg/kg, 6 h, dose level Control
[4] = 0 mg/kg, 6 h, tissue Plasma, dose level Control
[5] = 0 mg/kg, 9 h, dose level Control
[6] = 0 mg/kg, 9 h, tissue Plasma, dose level Control
[7] = 0 mg/kg, 24 h, dose level Control
[8] = 0 mg/kg, 24 h, tissue Plasma, dose level Control
[9] = 1 mg/kg, 3 h, dose level Middle
[10] = 1 mg/kg, 3 h, tissue Plasma, dose level Middle
[11] = 1 mg/kg, 6 h, dose level Middle
[12] = 1 mg/kg, 6 h, tissue Plasma, dose level Middle

With CISPLATIN the TERMINAL_BW [1] was 217.6 g, the Bas [1] was 0% and the Eos [1] was 1%. For the same sequence, the Fbg [1] was 292.4 mg/dL, the Ht [1] was 40.6% and the Lym [1] was 82.4%. The MCHC [1] was 32.6%, the MCV [1] was 65.7 fL and the Mono [1] was 2.2%. The PT [1] was 15.3 s, the Plat [1] was 125.7 x10_4/uL and the RBC [1] was 617.8 x10_4/ul. It also gave a Ret [1] of 6.8%, a WBC [1] of 111 x10_2/uL and a KIDNEY_L [1] of 1 g. It also gave a KIDNEY_R [1] of 1 g, a KIDNEY_TOTAL [1] of 1.9 g and an ALP [2] of 1441.2 IU/L. It also gave an ALT [2] of 48.4 IU/L, an AST [2] of 80.6 IU/L and a BUN [2] of 13.6 mg/dL. For the same sequence, the CRE [2] was 0.2 mg/dL, the Ca [2] was 11 mg/dL and the DBIL [2] was 0 mg/dL. For the same sequence, the IP [2] was 8.7 mg/dL, the K [2] was 4.2 meq/L and the LDH [2] was 188.6 IU/L. It also gave a PL [2] of 126.6 mg/dL, an RALB [2] of 2.9 g/dL and a TBIL [2] of 0.02 mg/dL. It also gave a TC [2] of 71 mg/dL, a TG [2] of 54.8 mg/dL and a TP [2] of 5.4 g/dL. The gamma-GTP [2] was 2 IU/L, the TERMINAL_BW [3] was 210.4 g and the APTT [3] was 22.8 s. It also gave a Bas [3] of 0%, an Eos [3] of 1% and a Fbg [3] of 275.4 mg/dL. It also gave a Hb [3] of 13 g/dL, a Ht [3] of 39.7% and a Lym [3] of 83.4%. It also gave an MCH [3] of 21.1 pg, an MCHC [3] of 32.7% and an MCV [3] of 64.3 fL. For the same sequence, the Mono [3] was 3%, the Plat [3] was 115.2 x10_4/uL and the RBC [3] was 617.6 x10_4/ul. For the same sequence, the Ret [3] was 6.5%, the WBC [3] was 152.3 x10_2/uL and the KIDNEY_L [3] was 0.9 g. The KIDNEY_R [3] was 1 g, the KIDNEY_TOTAL [3] was 1.9 g and the LIVER [3] was 9.2 g. For the same sequence, the ALP [4] was 1766.6 IU/L, the ALT [4] was 44 IU/L and the AST [4] was 76.8 IU/L. For the same sequence, the BUN [4] was 12.6 mg/dL, the CRE [4] was 0.2 mg/dL and the DBIL [4] was 0 mg/dL. The IP [4] was 9.5 mg/dL, the K [4] was 4.5 meq/L and the LDH [4] was 165.8 IU/L. For the same sequence, the Na [4] was 139.2 meq/L, the PL [4] was 128.6 mg/dL and the RALB [4] was 2.8 g/dL. The TBIL [4] was 0 mg/dL, the TC [4] was 67.2 mg/dL and the TG [4] was 81.6 mg/dL. For the same sequence, the TP [4] was 5.2 g/dL, the gamma-GTP [4] was 1.6 IU/L and the TERMINAL_BW [5] was 208.8 g. For the same sequence, the APTT [5] was 24.1 s, the Bas [5] was 0% and the Eos [5] was 0.6%. The Fbg [5] was 257.6 mg/dL, the Hb [5] was 13 g/dL and the Ht [5] was 39.9%. It also gave a Lym [5] of 79.8%, an MCHC [5] of 32.7% and an MCV [5] of 64 fL. The Mono [5] was 2.4%, the Neu [5] was 16.4% and the Plat [5] was 119.1 x10_4/uL. It also gave an RBC [5] of 623 x10_4/ul, a Ret [5] of 5.8% and a WBC [5] of 90.6 x10_2/uL. The KIDNEY_L [5] was 0.9 g, the KIDNEY_R [5] was 1 g and the KIDNEY_TOTAL [5] was 1.9 g. It also gave an LIVER [5] of 8.9 g, an ALP [6] of 1337.6 IU/L and an ALT [6] of 39.8 IU/L. It also gave an AST [6] of 74.2 IU/L, a BUN [6] of 12.8 mg/dL and a CRE [6] of 0.1 mg/dL. For the same sequence, the DBIL [6] was 0 mg/dL, the GLC [6] was 184.8 mg/dL and the K [6] was 4.2 meq/L. The LDH [6] was 139.8 IU/L, the Na [6] was 139.8 meq/L and the PL [6] was 130.2 mg/dL. The RALB [6] was 2.9 g/dL, the TBIL [6] was 0.02 mg/dL and the TP [6] was 5.4 g/dL. For the same sequence, the gamma-GTP [6] was 1.6 IU/L, the TERMINAL_BW [7] was 232.1 g and the APTT [7] was 22.3 s. It also gave a Bas [7] of 0%, an Eos [7] of 1% and a Fbg [7] of 282.6 mg/dL. It also gave a Ht [7] of 40.2%, a Lym [7] of 81.2% and an MCH [7] of 21.1 pg. It also gave an MCV [7] of 65 fL, a Mono [7] of 2.8% and a Plat [7] of 123 x10_4/uL. The RBC [7] was 617.6 x10_4/ul, the Ret [7] was 6.3% and the WBC [7] was 84 x10_2/uL. It also gave a KIDNEY_L [7] of 1 g, a KIDNEY_R [7] of 1.1 g and a KIDNEY_TOTAL [7] of 2.1 g. For the same sequence, the ALP [8] was 1431.4 IU/L, the ALT [8] was 47.4 IU/L and the AST [8] was 74.8 IU/L. It also gave a BUN [8] of 17.2 mg/dL, a CRE [8] of 0.2 mg/dL and a DBIL [8] of 0 mg/dL. It also gave an IP [8] of 7.7 mg/dL, a K [8] of 4.4 meq/L and an LDH [8] of 177.8 IU/L. The PL [8] was 150.4 mg/dL, the RALB [8] was 3 g/dL and the TBIL [8] was 0.014 mg/dL. For the same sequence, the TC [8] was 80.2 mg/dL, the TG [8] was 98.4 mg/dL and the TP [8] was 5.6 g/dL. It also gave a gamma-GTP [8] of 1.6 IU/L, a TERMINAL_BW [9] of 215.5 g and an APTT [9] of 22.6 s. It also gave a Bas [9] of 0%, an Eos [9] of 1% and a Fbg [9] of 275.8 mg/dL. It also gave a Hb [9] of 12.7 g/dL, a Ht [9] of 38.9% and a Lym [9] of 75%. For the same sequence, the MCH [9] was 21.1 pg, the MCHC [9] was 32.7% and the MCV [9] was 64.5 fL. It also gave a Mono [9] of 2.6%, a Plat [9] of 127.7 x10_4/uL and an RBC [9] of 602.2 x10_4/ul. It also gave a Ret [9] of 6.6%, a WBC [9] of 89.5 x10_2/uL and a KIDNEY_L [9] of 1 g. It also gave a KIDNEY_R [9] of 1 g, a KIDNEY_TOTAL [9] of 2 g and an LIVER [9] of 10 g. The ALP [10] was 1623.4 IU/L, the ALT [10] was 38.8 IU/L and the BUN [10] was 13 mg/dL. The CRE [10] was 0.2 mg/dL, the DBIL [10] was 0 mg/dL and the GLC [10] was 175.4 mg/dL. It also gave an IP [10] of 8.9 mg/dL, a K [10] of 4.2 meq/L and an LDH [10] of 152.2 IU/L. For the same sequence, the Na [10] was 139.6 meq/L, the PL [10] was 132.4 mg/dL and the RALB [10] was 2.8 g/dL. For the same sequence, the TBIL [10] was 0.014 mg/dL, the TC [10] was 75 mg/dL and the TG [10] was 80.6 mg/dL. It also gave a TP [10] of 5.2 g/dL, a gamma-GTP [10] of 1.4 IU/L and a TERMINAL_BW [11] of 216 g. It also gave an APTT [11] of 22.5 s, a Bas [11] of 0% and an Eos [11] of 1%. The Fbg [11] was 275 mg/dL, the Hb [11] was 13 g/dL and the Ht [11] was 39.9%. For the same sequence, the Lym [11] was 77%, the MCHC [11] was 32.6% and the MCV [11] was 63.4 fL. It also gave a Mono [11] of 3%, a Neu [11] of 17.8% and a PT [11] of 15.4 s. It also gave a Plat [11] of 128.4 x10_4/uL, an RBC [11] of 629.4 x10_4/ul and a Ret [11] of 6.1%. The WBC [11] was 106.4 x10_2/uL, the KIDNEY_L [11] was 1 g and the KIDNEY_R [11] was 1 g. It also gave a KIDNEY_TOTAL [11] of 2 g, an LIVER [11] of 9.4 g and an ALP [12] of 1530.2 IU/L. For the same sequence, the ALT [12] was 42.8 IU/L, the AST [12] was 75.8 IU/L and the CRE [12] was 0.1 mg/dL. For the same sequence, the DBIL [12] was 0 mg/dL, the IP [12] was 9.6 mg/dL and the K [12] was 4.4 meq/L. The LDH [12] was 159.6 IU/L, the Na [12] was 138.6 meq/L and the PL [12] was 135.6 mg/dL. The RALB [12] was 2.9 g/dL, the TBIL [12] was 0 mg/dL and the TC [12] was 73.2 mg/dL. For the same sequence, the TG [12] was 92.2 mg/dL, the TP [12] was 5.4 g/dL and the gamma-GTP [12] was 2 IU/L.
